A word on the IC50: it is the midpoint of a concentration-inhibition curve. Lower therefore signals greater potency.

In assay [1] the target is T1, Cytochrome P450 1A2 (Homo sapiens, UniProt P05177).
T1 sequence (P05177 whole entry): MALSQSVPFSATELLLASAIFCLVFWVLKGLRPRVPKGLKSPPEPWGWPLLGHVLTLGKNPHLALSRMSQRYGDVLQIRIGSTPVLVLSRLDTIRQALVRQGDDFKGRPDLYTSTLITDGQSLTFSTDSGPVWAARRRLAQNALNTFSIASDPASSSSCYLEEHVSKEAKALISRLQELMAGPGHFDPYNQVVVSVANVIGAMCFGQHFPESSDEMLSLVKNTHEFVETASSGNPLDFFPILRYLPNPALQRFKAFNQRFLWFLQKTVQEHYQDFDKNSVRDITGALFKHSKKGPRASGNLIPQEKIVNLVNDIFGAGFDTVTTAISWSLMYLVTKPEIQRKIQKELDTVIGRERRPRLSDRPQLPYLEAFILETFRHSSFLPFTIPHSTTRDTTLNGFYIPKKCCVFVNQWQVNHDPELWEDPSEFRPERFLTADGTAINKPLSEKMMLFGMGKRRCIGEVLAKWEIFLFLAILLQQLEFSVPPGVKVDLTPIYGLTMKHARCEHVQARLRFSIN
Nature of the assay: Inhibition of CYP1A2.

Assay [2] concerns the target Cytochrome P450 2D6 (Homo sapiens, UniProt P10635). In words: Inhibition of CYP2D6.
For assay [3], the target named is Cytochrome P450 3A4 (Homo sapiens, UniProt P08684). Nature of the assay: Inhibition of CYP3A4.
Sequence of Cytochrome P450 3A4 (P08684 whole entry): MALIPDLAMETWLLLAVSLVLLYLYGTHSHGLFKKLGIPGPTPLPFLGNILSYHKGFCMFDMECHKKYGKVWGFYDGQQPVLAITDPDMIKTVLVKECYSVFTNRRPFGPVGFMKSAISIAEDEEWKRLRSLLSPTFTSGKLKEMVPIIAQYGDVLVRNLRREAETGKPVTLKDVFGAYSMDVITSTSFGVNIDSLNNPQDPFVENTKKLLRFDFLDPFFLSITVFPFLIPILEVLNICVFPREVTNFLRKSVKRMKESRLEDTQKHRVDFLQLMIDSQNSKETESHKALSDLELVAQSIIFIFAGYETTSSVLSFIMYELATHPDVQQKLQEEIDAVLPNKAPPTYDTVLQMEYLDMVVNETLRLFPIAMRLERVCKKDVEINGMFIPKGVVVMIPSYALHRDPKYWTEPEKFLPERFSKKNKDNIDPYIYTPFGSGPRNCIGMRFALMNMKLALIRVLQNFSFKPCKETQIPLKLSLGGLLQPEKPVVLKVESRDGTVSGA

Sequence of Cytochrome P450 2D6 (P10635 whole entry): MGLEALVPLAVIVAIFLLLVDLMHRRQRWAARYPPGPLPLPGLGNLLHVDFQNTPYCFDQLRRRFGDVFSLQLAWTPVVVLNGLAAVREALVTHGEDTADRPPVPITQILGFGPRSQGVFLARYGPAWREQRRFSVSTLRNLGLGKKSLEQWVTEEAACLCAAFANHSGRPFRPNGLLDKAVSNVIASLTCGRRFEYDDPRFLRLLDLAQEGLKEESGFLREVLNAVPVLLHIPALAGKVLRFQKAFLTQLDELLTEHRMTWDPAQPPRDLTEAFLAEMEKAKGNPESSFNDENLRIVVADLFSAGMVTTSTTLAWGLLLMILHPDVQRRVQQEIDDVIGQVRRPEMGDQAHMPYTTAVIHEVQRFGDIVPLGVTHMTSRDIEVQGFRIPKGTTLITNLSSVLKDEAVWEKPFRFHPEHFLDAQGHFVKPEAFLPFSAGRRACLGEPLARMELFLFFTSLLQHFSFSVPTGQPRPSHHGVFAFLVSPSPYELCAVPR

Take `O=C(N[C@@H](Cc1c[nH]c2ccc(O)cc12)c1cscn1)c1ccc2c(c1)nc(-c1ccoc1)n2C1CCCCC1` [1-cyclohexyl-2-(furan-3-yl)-N-((S)-2-(5-hydroxy-1H-indol-3-yl)-1-(thiazol-4-yl)ethyl)-1H-benzo[d]imidazole-5-carboxamide]: the 50% inhibitory concentration (IC50) in assay [1] is greater than 30 µM.
`O=C(O)/C=C/c1ccc(NC(=O)C2(NC(=O)c3ccc4c(c3)nc(-c3ccoc3)n4C3CCCCC3)CCCC2)cc1` [3-(4-(1-(1-cyclohexyl-2-(furan-3-yl)-1H-benzo[d]imidazole-5-carboxamido)cyclopentanecarboxamido)phenyl)acrylic acid]: the IC50 in assay [1], in assay [2] and in assay [3] was greater than 30 µM in each case.
For the molecule `O=C(O)/C=C/c1ccc(NC(=O)C2(NC(=O)c3ccc4c(c3)nc(-c3ccccn3)n4C3CCCCC3)CCCC2)cc1` [3-(4-(1-(1-cyclohexyl-2-(pyridin-2-yl)-1H-benzo[d]imidazole-5-carboxamido)cyclopentanecarboxamido)phenyl)acrylic acid], the concentration for half-maximal inhibition (IC50) in assay [1], in assay [2] and in assay [3] was greater than 30 µM in each case.
